According to patent US10800789B2, “Antiviral compounds” (Gilead Pharmasset LLC, priority 2012, dated 2020):
Where two headings read alike, the source gives them in different places.

Columns and labels:
[1] = tested on: stable HCV 1a RLuc replicon cells (dicistronic genotype 1a H77 replicon); assay: Renilla luciferase HCV replicon reporter assay, genotype 1a; format: cell-based; conditions: Hepatitis C virus, 72 h, stable 1a H77 RLuc replicon cells
Summary of the method: (§1)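 72 h compound exposure (3-fold dilutions from 10 mM DMSO stocks) of replicon cells: stable dicistronic RLuc 1a H77, 1b Con1, 2a JFH-1 (NS5A L31); J6-NS5A chimera in JFH-1 (M31), transient in Huh-Lunet or stable. Renilla luciferase read-out, non-linear regression → EC50. DMSO negative control.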

[2] = tested on: stable HCV 2a JFH-1 Rluc replicon cells (L31 present in NS5A); assay: Renilla luciferase HCV replicon reporter assay, genotype 2a JFH-1; format: cell-based; conditions: Hepatitis C virus
Summary of the method: as §1

[3] = tested on: NS5A chimeric genotype 1b Con1 replicon with genotype 4a ED43 strain NS5A gene; assay: Replicon assay, genotype 4a NS5A chimera; format: cell-based, HCV; conditions: Hepatitis C virus
[4] = tested on: stable HCV 1b RLuc replicon cells (dicistronic genotype 1b Con1 replicon); assay: Renilla luciferase HCV replicon reporter assay, genotype 1b; format: cell-based; conditions: Hepatitis C virus, 72 h, stable 1b Con1 RLuc replicon cells, 72 hours; read-out: 1b
Summary of the method: as §1

[5] = tested on: NS5A chimeric genotype 1b Con1 replicon with genotype 3a S52 strain NS5A gene; assay: Replicon assay, genotype 3a NS5A chimera; format: cell-based, HCV; conditions: Hepatitis C virus
[6] = tested on: NS5A chimeric genotype 2a JFH-1 replicon with genotype 2b MD2b-1 strain NS5A gene (M31 present); assay: Replicon assay, genotype 2b NS5A chimera; format: cell-based, HCV; conditions: Hepatitis C virus
Summary of the method: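 EC50 was fitted by non-linear regression to Renilla luciferase signal after 72 h of exposure to 3-fold serially diluted compound (10 mM DMSO stocks). Controls were DMSO (none) and ITMN-191 above 100×EC50 (full). Chimeric 2a replicons were used either stable or transiently transfected into Huh-Lunet cells.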

[7] = tested on: NS5A chimeric genotype 2a JFH-1 replicon with genotype 2a J6 strain NS5A gene (M31 present); assay: Replicon assay, genotype 2a J6 NS5A chimera; format: cell-based, HCV; conditions: Hepatitis C virus
Summary of the method: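 Antiviral EC50 was determined in HCV replicon cells (stable RLuc lines for 1a H77, 1b Con1, 2a JFH-1 with NS5A L31; J6 NS5A chimera with M31) treated 72 h with compound. Renilla luciferase was then quantified.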

[8] = tested on: Q30R in genotype 1a NS5A (1a Pi-Rluc replicon, Huh-7-derived cured-51 cells); assay: Replicon assay against resistance mutant 1a Q30R; format: cell-based, HCV; conditions: Hepatitis C virus
Description: Antiviral potency (EC50) was determined using a Renilla luciferase (RLuc)-based HCV replicon reporter assay. To perform the assay for genotype 1 and 2a JFH-1, stable HCV 1a RLuc replicon cells (harboring a dicistronic genotype 1a H77 replicon that encodes a RLuc reporter), stable HCV 1b RLuc replicon cells (harboring a dicistronic genotype 1b Con1 replicon that encodes a RLuc reporter), or stable HCV 2a JFH-1 Rluc replicon cells (harboring a dicistronic genotype 2a JFH-1 replicon that encodes a RLuc reporter; with L31 present in NS5A) were dispensed into 384-well plates for EC50 assays. To perform the assay for genotype 2a (with M31 present in NS5A) or 2b, NS5A chimeric genotype 2a JFH-1 replicons that encodes a RLuc-Neo reporter and either genotype 2a J6 strain NS5A gene or genotype 2b MD2b-1 strain NS5A gene (both with M31 present) respectively, were either transiently transfected (t) into Huh-Lunet cells or were established as stably replicating replicon cells (s) is provided. Either cells were dispensed into 384-well plates for EC50 assays. To perform the assay for genotype 3 and 4, NS5A chimeric genotype 1b Con1 replicons that encodes a Pi-RLuc reporter and either genotype 3a S52 strain NS5A gene or genotype 4a ED43 strain NS5A gene respectively, were transiently transfected (t) into Huh-Lunet cells, which were subsequently dispensed into 384-well plates. Compounds were dissolved in DMSO at a concentration of 10 mM and diluted in DMSO either manually or using an automated pipeting instrument. Serially 3-fold diluted compounds were either manually mixed with cell culture media and added to the seeded cells or directly added to the cells using an automated instrument. DMSO was used as a negative (solvent; no inhibition) control, and the protease inhibitor ITMN-191 was included at a concentration>100×EC50 as a positive control. 72 hours later, cells were lysed and Renilla luciferase activity quantified as recommended by the manufacturer (Promega-Madison, Wis.). Non-linear regression was performed to calculate EC50 values.
To determine the antiviral potency (EC50) against resistance mutants, resistance mutations, including M28T, Q30R, Q30H, Q30E, L31M, Y93C, Y93H, and Y93N in genotype 1a NS5A, Y93H and L31V/Y93H in genotype 1b NS5A, and Y93H for in genotype 3a NS5A, were introduced individually into either 1a Pi-Rluc or 1b Pi-Rluc replicons by site directed mutagenesis. Replicon RNA of each resistant mutant was transiently transfected into Huh-7-derived cured-51 cells and antiviral potency was determined on these transfected cells as described above.

[9] = read-out: 2a JFH (nM), genotype 2a JFH-1 replicon (L31 in NS5A), stable cells
[10] = read-out: 2a JFH, stable 2a JFH-1 Rluc replicon cells, L31 in NS5A, activity range
[11] = read-out: 4a (s) (nM), genotype 4a NS5A chimeric replicon, stable replicon cells (s)
[12] = read-out: 4a (s), (s), activity range
[13] = read-out: 3a (s) (nM), genotype 3a NS5A chimeric replicon, stable replicon cells (s)
[14] = read-out: 3a (s), (s), activity range
[15] = 2BS, read-out: 2b (s), stably replicating replicon cells (s), activity range
[16] = read-out: 2b (s) (nM), genotype 2b MD2b-1 NS5A chimeric replicon (M31), stably replicating replicon cells (s)
[17] = read-out: 2a J6 (t) (nM), genotype 2a J6 NS5A chimeric replicon (M31), transiently transfected (t) into Huh-Lunet cells
[18] = read-out: 2a J6 (t), transiently transfected (t) into Huh-Lunet cells, activity range

**Q.** With COC(=O)N[C@H](C(=O)N1[C@@H](C)CC[C@H]1c1ncc(-c2ccc3c(c2)COc2cc4c(ccc5nc([C@@H]6CC[C@H](C)N6C(=O)[C@H](NC(=O)OC)c6ccccc6)[nH]c54)cc2-3)[nH]1)C(C)C [FB, Methyl {(1R)-2-[(2S,5S)-2-(9-{2-[(2S,5S)-1-{(2S)-2-[(methoxycarbonyl)amino]-3-methylbutanoyl}-5-methylpyrrolidin-2-yl]-1H-imidazol-5-yl}-1,11-dihydroisochromeno[4′,3′:6,7]naphtho[1,2-d]imidazol-2-yl)-5-methylpyrrolidin-1-yl]-2-oxo-1-phenylethyl}carbamate] as the compound, how does the EC50 [1] read?
**A.** The EC50 was 0.009 nM.

**Q.** What about the EC50 ([1]; activity range) of the same compound?
**A.** Its EC50 is less than 0.1 nM.

**Q.** And the EC50 [2, 9]?
**A.** Its EC50 is 0.013 nM.

**Q.** What about the EC50 [2, 10] of the same compound?
**A.** Its EC50 is less than 0.1 nM.

**Q.** And the EC50 [3, 11]?
**A.** The EC50 was 0.01 nM.

**Q.** And the EC50 [3, 12]?
**A.** Its EC50 is less than 0.1 nM.

**Q.** What about the EC50 [4] of the same compound?
**A.** The EC50 was 0.014 nM.

**Q.** What about the EC50 [5, 13] of the same compound?
**A.** Its EC50 is 0.026 nM.

**Q.** What about the EC50 [5, 14] of the same compound?
**A.** The EC50 was less than 0.1 nM.

**Q.** And the EC50 [6, 15]?
**A.** The EC50 was less than 0.1 nM.

**Q.** And the EC50 [6, 16]?
**A.** Its EC50 is 0.081 nM.

**Q.** And the EC50 [7, 17]?
**A.** Its EC50 is 0.105 nM.

**Q.** What about the EC50 [7, 18] of the same compound?
**A.** The EC50 was 0.1 to 0.999 nM.

**Q.** What about the EC50 ([8]; read-out: 1a Q30R) of the same compound?
**A.** Its EC50 is less than 0.1 nM.

**Q.** And the EC50 ([8]; read-out: 1a Q30R (nM))?
**A.** The EC50 was 0.077 nM.

**Q.** What does the source list for COC[C@H](NC(=O)OC)C(=O)N1[C@@H](C)CC[C@H]1c1nc2ccc3cc4c(cc3c2[nH]1)OCc1cc(-c2cnc([C@@H]3CC[C@H](C)N3C(=O)[C@@H](NC(=O)OC)C(C)C)[nH]2)ccc1-4 [FE, Methyl [(2S)-1-{(2S,5S)-2-[5-(2-{(2S,5S)-1-[N-(methoxycarbonyl)-O-methyl-L-seryl]-5-methylpyrrolidin-2-yl}-1,11-dihydroisochromeno[4′,3′:6,7]naphtho[1,2-d]imidazol-9-yl)-1H-imidazol-2-yl]-5-methylpyrrolidin-1-yl}-3-methyl-1-oxobutan-2-yl]carbamate]?
**A.** EC50 [1]: 0.012 nM; EC50 ([1]; activity range): < 0.1 nM; EC50 [2, 9]: 0.016 nM; EC50 [2, 10]: < 0.1 nM; EC50 [3, 11]: 0.012 nM; EC50 [3, 12]: < 0.1 nM; EC50 [4]: 0.015 nM; EC50 [5, 13]: 0.072 nM; EC50 [5, 14]: < 0.1 nM; EC50 [6, 15]: 0.1 to 0.999 nM; EC50 [6, 16]: 0.463 nM; EC50 [7, 17]: 0.122 nM; EC50 [7, 18]: 0.1 to 0.999 nM; EC50 ([8]; read-out: 1a Q30R): 0.1 to 0.999 nM; EC50 ([8]; read-out: 1a Q30R (nM)): 0.253 nM

**Q.** How did the EC50 [1] turn out when COC(=O)N[C@H](C(=O)N1[C@@H](C)CC[C@H]1c1ncc(-c2ccc3c(c2)COc2cc4c(ccc5nc([C@@H]6CC[C@H](C)N6C(=O)[C@@H](NC(=O)OC)[C@@H](C)OC(C)(C)C)[nH]c54)cc2-3)[nH]1)C(C)C [FG, Methyl {(2S,3R)-3-tert-butoxy-1-[(2S,5S)-2-(9-{2-[(2S,5S)-1-{(2S)-2-[(methoxycarbonyl)amino]-3-methylbutanoyl}-5-methylpyrrolidin-2-yl]-1H-imidazol-5-yl}-1,11-dihydroisochromeno[4′,3′:6,7]naphtho[1,2-d]imidazol-2-yl)-5-methylpyrrolidin-1-yl]-1-oxobutan-2-yl}carbamate] was run?
**A.** The EC50 was 0.024 nM.

**Q.** What about the EC50 ([1]; activity range) of the same compound?
**A.** Its EC50 is less than 0.1 nM.

**Q.** And the EC50 [2, 9]?
**A.** Its EC50 is 0.047 nM.

**Q.** And the EC50 [2, 10]?
**A.** The EC50 was less than 0.1 nM.

**Q.** What about the EC50 [3, 11] of the same compound?
**A.** Its EC50 is 0.044 nM.

**Q.** And the EC50 [3, 12]?
**A.** Its EC50 is less than 0.1 nM.

**Q.** And the EC50 [4]?
**A.** Its EC50 is 0.04 nM.

**Q.** What about the EC50 [5, 13] of the same compound?
**A.** The EC50 was 0.298 nM.

**Q.** And the EC50 [5, 14]?
**A.** The EC50 was 0.1 to 0.999 nM.

**Q.** And the EC50 [6, 15]?
**A.** The EC50 was 1 to 44 nM.

**Q.** What about the EC50 [6, 16] of the same compound?
**A.** The EC50 was 1.53 nM.

**Q.** And the EC50 [7, 17]?
**A.** The EC50 was 1.45 nM.

**Q.** And the EC50 [7, 18]?
**A.** The EC50 was 1 to 44 nM.

**Q.** And the EC50 ([8]; read-out: 1a Q30R)?
**A.** Its EC50 is 0.1 to 0.999 nM.

**Q.** And the EC50 ([8]; read-out: 1a Q30R (nM))?
**A.** Its EC50 is 0.577 nM.
